What follows are molecules tested against T1, DPP-IV (Homo sapiens, UniProt P27487) (assay: DPP-IV assay with Caco-2 cell extract, AFC substrate, fluorescence). Details: extract of human colon carcinoma cell line Caco-2 as DPP IV source; AFC substrate 100 μM; 60 minutes, ambient temperature; read-out: DPP IV inhibition IC50.
T1 construct: an extract of the human colon carcinoma cell line Caco-2 is used as the DPP IV source; endogenous in cells; host or cells: Caco-2 (human colon carcinoma), differentiated to induce DPP-IV expression; Nonidet-P40 solubilised extract
Assay type: biochemical
Procedure: The differentiation of the cells in order to induce the DPP-IV expression was carried out in accordance with the description by Reiher et al. in an article entitled “Increased expression of intestinal cell line Caco-2”, which appeared in Proc. Natl. Acad. Sci. Vol. 90, pp. 5757–5761 (1993). The cell extract was obtained from cells solubilised in a buffer (10 mM Tris HCl, 0.15 M NaCl, 0.04 t.i.u. aprotinin, 0.5% Nonidet-P40, pH 8.0) by centrifugation at 35,000 g for 30 minutes at 4° C. (to remove cell debris).
The DPP-IV assay was carried out as follows:
50 μl of substrate solution (AFC; AFC is amido-4-trifluoromethylcoumarin), final concentration 100 μM, were placed in black microtitre plates. 20 μl of assay buffer (final concentrations 50 mM Tris HCl pH 7.8, 50 mM NaCl, 1% DMSO) was pipetted in. The reaction was started by the addition of 30 μl of solubilised Caco-2 protein (final concentration 0.14 μg of protein per well). The test substances under investigation were typically added prediluted to 20 μl, while the volume of assay buffer was then reduced accordingly. The reaction was carried out at ambient temperature, the incubation period was 60 minutes. Then the fluorescence was measured in a Victor 1420 Multilabel Counter, with the excitation wavelength at 405 nm and the emission wavelength at 535 nm. Dummy values (corresponding to 0% activity) were obtained in mixtures with no Caco-2 protein (volume replaced by assay buffer), control values (corresponding to 100% activity) were obtained in mixtures without any added substance. The potency of the test substances in question, expressed as IC50 values, were calculated from dosage/activity curves consisting of 11 measured points in each case.

T1 sequence (P27487 whole entry): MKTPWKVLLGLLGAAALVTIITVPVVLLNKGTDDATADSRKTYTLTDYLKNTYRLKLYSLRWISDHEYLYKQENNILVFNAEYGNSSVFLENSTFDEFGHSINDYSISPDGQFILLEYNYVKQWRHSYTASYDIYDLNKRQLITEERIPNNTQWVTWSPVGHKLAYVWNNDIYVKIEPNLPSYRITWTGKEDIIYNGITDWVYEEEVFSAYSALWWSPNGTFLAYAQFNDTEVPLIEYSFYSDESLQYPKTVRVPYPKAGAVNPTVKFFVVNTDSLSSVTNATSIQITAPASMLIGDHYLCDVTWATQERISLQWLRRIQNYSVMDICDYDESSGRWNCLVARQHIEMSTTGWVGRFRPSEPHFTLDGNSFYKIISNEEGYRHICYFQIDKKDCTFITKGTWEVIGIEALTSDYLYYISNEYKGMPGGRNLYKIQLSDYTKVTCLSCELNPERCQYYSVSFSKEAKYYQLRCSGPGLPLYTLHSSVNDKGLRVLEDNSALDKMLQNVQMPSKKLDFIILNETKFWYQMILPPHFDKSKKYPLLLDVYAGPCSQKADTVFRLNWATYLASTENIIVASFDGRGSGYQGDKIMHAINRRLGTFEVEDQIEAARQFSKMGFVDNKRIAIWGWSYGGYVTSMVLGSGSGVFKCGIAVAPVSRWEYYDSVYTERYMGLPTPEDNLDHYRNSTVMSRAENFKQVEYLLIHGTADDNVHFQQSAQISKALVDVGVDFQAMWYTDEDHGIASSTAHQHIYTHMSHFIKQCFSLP

Row | Molecule | IC50 [nM]
1 | 1-[(1-oxy-quinolin-2-yl)methyl]-3-methyl-7-(2-butyn-1-yl)-8-((R)-3-amino-piperidin-1-yl)-xanthine [1(1)] | 1
2 | CC#CCn1c(N2CCC[C@@H](N)C2)nc2c1c(=O)n(Cc1c3ccccc3cc(C)[n+]1[O-])c(=O)n2C [1(2), 1-[(3-methyl-2-oxy-isoquinolin-1-yl)methyl]-3-methyl-7-(2-butyn-1-yl)-8-((R)-3-amino-piperidin-1-yl)-xanthine] | 4
3 | CC#CCn1c(N2CCC[C@@H](N)C2)nc2c1c(=O)n(Cc1nc3ccccc3c(C)[n+]1[O-])c(=O)n2C [Example 1, 1-[(4-methyl-3-oxy-quinazolin-2-yl)methyl]-3-methyl-7-(2-butyn-1-yl)-8-((R)-3-amino-piperidin-1-yl)-xanthine] | 2

Results, then the molecule that gave them:

Row | IC50 [nM] | Molecule
4 | 6 | CC#CCn1c(N2CCC[C@@H](N)C2)nc2c1c(=O)n(Cc1c3ccccc3c3ccccc3[n+]1[O-])c(=O)n2C [1(3), 1-[(5-oxy-phenanthridin-6-yl)methyl]-3-methyl-7-(2-butyn-1-yl)-8-((R)-3-amino-piperidin-1-yl)-xanthine]
5 | 2 | CC#CCn1c(N2CCC[C@@H](N)C2)nc2c1c(=O)n(Cc1nc3ccccc3c[n+]1[O-])c(=O)n2C [1(4), 1-[(3-oxy-quinazolin-2-yl)methyl]-3-methyl-7-(2-butyn-1-yl)-8-((R)-3-amino-piperidin-1-yl)-xanthine]

The molecules below were run on rats (assay: Tolerability in rats after oral administration). Details: oral administration of 10 mg/kg.
Assay type: in vivo

Row | Molecule | toxic side effects
6 | CC#CCn1c(N2CCC[C@@H](N)C2)nc2c1c(=O)n(Cc1nc3ccccc3c(C)[n+]1[O-])c(=O)n2C [Example 1, 1-[(4-methyl-3-oxy-quinazolin-2-yl)methyl]-3-methyl-7-(2-butyn-1-yl)-8-((R)-3-amino-piperidin-1-yl)-xanthine] | no toxic side effects could be detected

Source: patent US7183280B2, “Bicyclic imidazole derivatives, the preparation thereof and their use as pharmaceutical compositions” (Boehringer Ingelheim International GmbH, priority 2004, dated 2007)
